Measured values: US20100210611A1, “COMBINATION THERAPY” (priority 2007, published 2010)
Values joined by “and” are separate entries in the source; they are usually repeats but may differ in a detail not shown here. Equal entries are not always repeated.

Columns and labels:
Type in all cases: physicochemical
[1] = Moisture and light sensitivity
[2] = Dose uniformity, Dosage Unit Sampling Apparatus (DUSA), USP <601>; conditions: Spinhaler; for Total recovered / amount in Device + Capsule: listed as MON; for amount in Device + Capsule: nominal 1000 μg MON, 400 μg MOM
Experimental: Dose uniformity was determined using Apparatus B (Dosage Unit Sampling Apparatus—DUSA) at a flow rate of 100 L/min (test described in United States Pharmacopoeia (USP) 27 Chapter <601>). The USP recommends selecting a flow rate that creates a pressure drop of 4 kPa across the inhaler. With the Spinhaler, a 4 kPa pressure drop could not be achieved even at the maximum flow rate of 100 L/min. Based on the recommendations of Byron, et al., a flow rate of 100 L/min was selected since the Spinhaler is a low resistance device. See Michael Hindle and Peter R. Byron, “Dose emissions from marketed dry powder inhalers”, International Journal of Pharmaceutics 116 (1995) 169-177. The test was run for 2.4 seconds in order to pull 4 L of air. After a shot had been delivered, all pieces of the DUSA including the mouthpiece adapter were rinsed with solvent. To determine the amount of drug retained in the inhaler, all pieces of the inhaler were rinsed with solvent including the interior of the capsule. The samples were then assayed using the UV-Vis spectrophotometer.
Shot weight was obtained by measuring the weight loss due to the actuation of the device. The device was tared, a “shot” was wasted in the DUSA and the device was re-weighed to obtain the delivered shot weight. Dose and shot weight were deemed acceptable if they were within 75% to 125% of the theoretical values (USP <601>).
(§1) Dose Uniformity (DU) was performed according to USP Chapter <601> by using DUSA Apparatus B with the Spinhaler® device which is analogous to that described in section Dose Uniformity for Example 1. However, the HPLC was used to analyze the content of the drugs as described in the Blend Uniformity in this example.
as §1, with “Uniformity” for “Uniformity (DU)”, “device and in a manner” for “device which is”, “Uniformity in” for “Uniformity for”, “Example 4, except” for “Example 1. However,”

[3] = Aerodynamic particle size distribution, Andersen cascade impaction (ACI); conditions: Spinhaler; for MMAD: cutoff diameter based on airflow rate of 28.3 L/min; for amount in ACI: including mouthpiece adapter
Description: The Andersen cascade impaction (ACI) (Apparatus 3) was the device used to determine the aerodynamic size distribution. The impaction provided in vitro measurements of the fraction of the aerosol that has the potential to reach the alveolar region of the lung. This value is represented by the portion of particles detected below plate 2. The impaction was operated at the flow rate and test time according to the method described in USP <601>. Because the Spinhaler® is a low resistance device, it is difficult to achieve a pressure drop of 4 kPa, an adjustment of the air flow rate at the intake of the flow control was performed, as discussed above. Each impaction plate was coated with silicone grease (316 Dow Corning) to prevent particles from bouncing off the plates and returning to the air stream. All stages were used since the test flow rate was less than 60 L/min. All pieces of the impaction including the inhaler and capsule were rinsed with solvent, diluted to suitable volumes, sonicated, centrifuged and assayed using the UV-VIS spectrophotometer. The respirable portion was quantified by the in vitro fine particle fraction and fine particle mass. Dose uniformity and cascade impaction tests were carried out at controlled temperature (20-25° C.) and humidity (50% RH). […]
Aerodynamic size distribution was performed according to USP Chapter <601> by using ACI Apparatus 3 with the Spinhaler® device analogous to that described in section Aerodynamic Particle Size Distribution for Example 1. However, the HPLC was used to analyze the content of the drugs as described in the Blend Uniformity in this example.
Aerodynamic size distribution was performed according to USP Chapter <601> by using ACI Apparatus 3 with the Spinhaler® device in a manner analogous to that described in section Aerodynamic Particle Size Distribution in Example 4. The content of the drugs were analyzed as described in the Blend Uniformity in this example.

[4] = Blend uniformity (individual capsule assay); conditions: HPLC, Mean ± RSD
Experimental: To assess blend uniformity, capsules from each blend were opened and rinsed with methanol. The solution was sonicated for 5 minutes at room temperature, centrifuged at 3000 rpm for 15 minutes then assayed using a UV-VIS spectrophotometer at a wavelength of 346 nm. […]
To assess blend uniformity, the blend was sampled randomly from the glass vial. The drugs were extracted analogous to that described in section Blend Uniformity for Example 1. However, the content of montelukast acid and mometasone furoate were analyzed by High Performance Liquid Chromatography (HPLC) employing a phenyl column with a controlled temperature of 50° C., a mixture of water containing 0.2% trifluoroacetic acid (TFA) and acetonitrile containing 0.2% TFA (53:47) as the mobile phase at a flow rate 2 ml/min and UV-detection at 248 nm.
The blend uniformity was assessed in a manner analogous to that described in the Blend Uniformity section in Example 4, except the content of montelukast acid and ciclesonide were analyzed by High Performance Liquid Chromatography (HPLC) employing a phenyl column with a controlled temperature of 50° C., a mixture of water containing 0.2% trifluoroacetic acid (TFA) and acetonitrile containing 0.2% TFA (40:60) at a flow rate 2 ml/min and UV-detection at 248 nm.

[5] = Example 4 blend, flow 61.5 L/min for 3.9 sec
[6] = Example 4 blend, flow 62.3 L/min for 3.9 sec
[7] = Example 4 blend, flow 62.8 L/min for 3.8 sec
[8] = Example 4 blend, blend with mometasone furoate
[9] = Example 5 blend, blend with ciclesonide

CC(C)(O)c1ccccc1CC[C@@H](SCC1(CC(=O)O)CC1)c1cccc(/C=C/c2ccc3ccc(Cl)cc3n2)c1 [Montelukast Acid, montelukast acid]
moisture and light sensitivity [1]: moisture sensitive and photosensitive
DU based on nominal dose, % (Device + Capsule) ([2]; Example 4 blend): *46.6%
DU based on nominal dose, % (printed in Adapter + Filter column) ([2]; Example 4 blend): 49.3%
DU based on total recovered, % (Device + Capsule) ([2]; Example 4 blend): **48.6%
DU based on total recovered, % (printed in Adapter + Filter column) ([2]; Example 4 blend): 51.4%
Total recovered [2, 5]: 952.06 µg and 949.00 µg and 958.48 µg
Total recovered [2, 6]: 983.22 µg and 979.15 µg
Total recovered [2, 7]: 937.91 µg and 949.52 µg
amount in Device + Capsule [2, 5]: 465.70 µg and 463.98 µg and 465.53 µg
amount in Device + Capsule [2, 6]: 462.40 µg and 459.39 µg
amount in Device + Capsule [2, 7]: 468.24 µg and 473.48 µg
DU based on nominal dose, % (Device + Capsule) ([2]; Example 5 blend): *44.5%
DU based on nominal dose, % (printed in Adapter + Filter column) ([2]; Example 5 blend): 47.8%
DU based on total recovered, % (Device + Capsule) ([2]; Example 5 blend): **48.2%
DU based on total recovered, % (printed in Adapter + Filter column) ([2]; Example 5 blend): 51.8%
FPF ([3]; Example 4 blend): 29%
FPD [3, 8]: 126.1 µg and 145.7 µg and 118.7 µg
FPF [3, 8]: 28.6% and 28.4% and 29.9%
GSD [3, 8]: 2.1 and 1.4
Total recovered [3, 8]: 953 µg and 962 µg and 921 µg
amount in inhaler [3, 8]: 512 µg and 450 µg and 524 µg
MMAD ([3]; Example 4 blend): 4.5 μm
MMAD [3, 8]: 4.6 μm and 4.4 μm
MMAD ([3]; Example 4 blend, mean): 4.5 μm
amount in ACI [3, 8]: 441 µg and 513 µg and 397 µg
amount in ACI ([3]; Example 4 blend, mean): 450 µg
FPD ([3]; Example 4 blend, mean): 130.2 µg
FPF ([3]; Example 4 blend, mean): 29.0%
GSD ([3]; Example 4 blend, mean): 1.6
Total recovered ([3]; Example 4 blend, mean): 945 µg
amount in inhaler ([3]; Example 4 blend, mean): 495 µg
FPF ([3]; Example 5 blend): 38%
FPD [3, 9]: 161.8 µg and 190.6 µg and 179.0 µg
FPF [3, 9]: 35.2% and 40.7%
GSD [3, 9]: 1.5 and 2.0
Total recovered [3, 9]: 990 µg and 882 µg and 904 µg
amount in inhaler [3, 9]: 530 µg and 413 µg and 431 µg
MMAD ([3]; Example 5 blend): 3.9 μm
MMAD [3, 9]: 3.9 μm and 4.0 μm and 3.8 μm
amount in ACI [3, 9]: 459 µg and 468 µg and 472 µg
amount in ACI ([3]; Example 5 blend, mean): 467 µg
FPD ([3]; Example 5 blend, mean): 177.1 µg
FPF ([3]; Example 5 blend, mean): 37.9%
GSD ([3]; Example 5 blend, mean): 1.7
Total recovered ([3]; Example 5 blend, mean): 925 µg
amount in inhaler ([3]; Example 5 blend, mean): 458 µg
Amount Recovered (μg/Capsule) ([4]; Example 4 blend (montelukast acid 4%, mometasone furoate 1.6%)): 940.4 µg and 907.0 µg and 953.9 µg
Amount Recovered (μg/Capsule) ([4]; Example 4 blend (montelukast acid 4%, mometasone furoate 1.6%), mean): 933.8 ± 2.6 µg
Amount Recovered, % ([4]; Example 4 blend): 91.4% and 93.0% and 93.9%
Amount Recovered, % ([4]; Example 4 blend, mean): 92.8 ± 1.4%
Amount Recovered (μg/Capsule) ([4]; Example 5 blend (montelukast acid 4%, ciclesonide 0.64%)): 943.3 µg and 928.8 µg and 997.5 µg
Amount Recovered (μg/Capsule) ([4]; Example 5 blend (montelukast acid 4%, ciclesonide 0.64%), mean of three capsules): 956.6 ± 3.4 µg
Amount Recovered, % ([4]; Example 5 blend): 94.3% and 92.9% and 99.8%
Amount Recovered, % ([4]; Example 5 blend, mean of three capsules): 95.7 ± 3.4%
